In patent publication US20260053767A1, “Hepatoprotective Compositions And Methods” (Jemyll, Ltd., priority 2022, published 2026):

Columns and labels:
[1] = tested on: Wistar rats; assay: Study 2 (reversal): liver histology (H&E, Oil Red O, Sirius Red); format: in vivo; conditions: Study 2: 9 weeks diet, then 4 weeks treatment
Description: Study design: All animal procedures were approved by the Catholic University of Rome Institutional Animal Care Committee. The design of the studies is summarized in FIG. 18, Panels A and B. • Study 1: Twenty adult Wistar rats, aged 8-10 weeks, were included in the study. The rats were housed in individual cages at 22° C. with 12-h light cycles and had ad libitum access to food and water. Rats were fed a high-fat high-cholesterol diet (44% Carbohydrate, 14% Protein, 42% fat+0.2% Cholesterol) (Mucedola, Milan, IT) for four weeks in the presence or absence of 1% Dodecanedioic acid, sodium salt (w/vol) dissolved in the water (FIG. 18, Panel A). Body weight and food/water intake were monitored weekly. • Study 2: Twenty adult Wistar rats, aged 8-10 weeks, were included in the study. The rats were housed in individual cages at 22° C. with 12-h light cycles and had ad libitum access to food and water. Rats were fed a high-fat high-cholesterol diet (44% Carbohydrate, 14% Protein, 42% fat+0.2% Cholesterol) (Mucedola, Milan, IT). After nine weeks of diet, rats were randomly assigned to one of the following groups: Four weeks of high-fat high-cholesterol diet or four weeks of high-fat high-cholesterol diet and 1% Dodecanedioic acid, sodium salt (w/v) dissolved in the water FIG. 18, Panel B). Body weight and food/water intake were monitored weekly.
Histology: The day of the sacrifice fresh portions of liver were cut, embedded in cryo-embedding media (OCT) and snap frozen in liquid nitrogen. Biopsies were cut using a cryostat (5 μm) and slides stored a −20° C. until analyses.
Hematoxylin and Eosin staining was performed to assess hepatic steatosis. Slides were fixed 10 minutes with 95% ethanol, stained with hematoxylin for 1 minute, washed with distilled water, stained with eosin for 30 seconds and cleared in two changes of pure ethanol and two changes of xylene.
Oil Red O was performed to assess intracellular lipid accumulation. Slides were fixed overnight with 4% formalin, stained with Oil Red O solution for 1 hour. Counterstain was performed with Hematoxylin solution.
Sirius Red was used to identify hepatic fibrosis. Slides were fixed 10 minutes with 4% formalin, stained in Direct red 80 for 1 hour, washed in acidified water and dehydrate in 3 changes of absolute ethanol. After brief clearing in xylene, the slides were mounted in a resinous medium. Images were taken with an optical microscope (Leica DM2000, Wetzlar, DE). […]
Panels A and B. • Study 1: Twenty adult Wistar rats, aged 8-10 weeks, were included in the study. […] Body weight and food/water intake were monitored weekly. • Study 2: Twenty adult Wistar rats, aged 8-10 weeks, were included in the study. […] Body weight and food/water intake were monitored weekly. […]

[2] = tested on: NAMPT; assay: NAMPT enzyme levels in endothelial cells; format: cell-based; conditions: EOMA endothelial cells, 6 hours; p=0.018
Description: (§1) To that end, the inventors used endothelial cells (EOMA cells) and liver cells (AML-12 cells) in vitro and quantified various markers in response to exposure of the cells to environmental challenge in the presence and absence of DDA at low concentrations. Unless indicated otherwise, the DDA concentration in the in vitro experiments was 5 mcg per microliter. More specifically, the inventors measured p-H2AX protein levels as a marker for DNA damage, PGC-1α protein levels as a marker for mitochondrial biogenesis, NAMPT enzyme levels as a marker for potential for NAD+ production, and total antioxidant capacity as a marker of cellular health. In addition, the inventors also measured global SIRT activity as a gauge of activity for all SIRT enzymes, and in particular SIRT1 enzyme levels as markers for autophagy and various beneficial processes associated with a caloric restricted diet, and SIRT3 levels as markers for mitochondrial function and longevity.
(§2) In yet a further series of experiments, the inventors also sought to confirm whether or not DDDA would have a modulatory effect in endothelial cells using the same markers and experimental conditions as noted above.
On the other hand, where endothelial cells were exposed to DDDA, there was a significant difference in NAMPT enzyme levels as is exemplarily depicted in FIG. 15.

[3] = tested on: primary human hepatocytes; assay: In vitro citrate uptake; format: cell-based; conditions: citrate 150 μM; for citrate uptake: vs untreated cells
Description: Isolation of human primary hepatocytes: Tissue obtained during percutaneous liver biopsy, was diced (<3 mm) and washed in HBSS to remove excess blood. Tissue was then transferred to a tube containing pre-warmed EGTA buffer (HBSS, 0.5 mM EGTA, 0.5% fatty acid free bovine serum albumin (BSA)) and agitated (100 rpm) in a water bath with shaking bed for 10 min, 37° C. After three washes, to remove the remaining blood and EGTA, the tissue was placed in pre-warmed digestion buffer (HBSS, 0.05% collagenase IV, 0.5% fatty acid free BSA, 10 mM CaC12) and agitated (100 rpm) in a water bath with shaking bed for 30 min, 37° C. The digested tissue was filtered through 100 μm cell strainer while the remaining tissue was again digested in fresh digestion buffer (20). Cell suspensions were pooled and centrifuged at 80 g for 5 min, 4° C. and the supernatant discarded. Cells were grown until confluent and used for citrate uptake analysis.
In vitro Citrate Uptake: Primary human hepatocytes were incubated with or without Dodecanedioic acid, sodium salt (0.1-0.25-0.5-1-1.5% w/vol) for 30 minutes. Following the incubation step, citrate was added at a final concentration of 150 μM for 40 minutes. At the end of the stimulation citrate uptake was assessed by a commercial Citrate Assay Kit and data analyzed with Varioskan LUX multimode microplate reader.

[4] = tested on: endothelial cells (EOMA cells); assay: Total antioxidant capacity in endothelial cells; format: cell-based; conditions: 24 hours, in the presence of hydrogen peroxide, p=0.001
Description: as §1, §2
With respect to antioxidant capacity, FIG. 12 depicts exemplary results. […] N=5-6 plates per treatment.

O=C(O)CCCCCCCCCCC(=O)O [DDDA, dodecanedioic acid]
diet-induced NASH (histology, reversal) [1]: reverses diet-induced insulin NASH
fibrosis (Picro Sirius Red) [1]: decreasing
hepatic steatosis (Hematoxylin and Eosin) [1]: decreasing
neutral lipids (Oil Red O) [1]: decreasing
NAMPT enzyme levels [2]: increased NAMPT enzyme levels
citrate uptake ([3]; C12 1% (v/w)): significant decrease
citrate uptake ([3]; C12 1.5% (v/w)): significant decrease
citrate uptake (figure legend) ([3]; C12 0.1-1.5% v/w): inhibits citrate uptake
cellular total antioxidant capacity [4]: maintained
